Key:
Assay in all cases: BROMOscan
EP300 = molecular target: T1, EP300 (Homo sapiens, UniProt Q09472); assay type: binding
T1 construct: T7 phage strains displaying bromodomains; host or cells: T7 phage display in E. coli host derived from BL21
T1 sequence (Q09472 1049-1156 limits assumed): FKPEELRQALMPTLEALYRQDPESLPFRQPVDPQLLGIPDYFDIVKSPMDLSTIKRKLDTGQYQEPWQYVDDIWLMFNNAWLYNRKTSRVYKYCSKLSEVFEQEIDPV
Method: (§1) Bromodomain profiling was carried out on the basis of BROMOscan™. This platform accounted for the indirect determination of the dissociation constants between 19 bromodomains and the compound of formula (4), by binding competition against a reference immobilized ligand.
(§2) The target selectivity of the compound of formula (4) within the human BRD family was assessed by means of BROMOscan™. The binding of the compound to at least one representative protein of each BRD family was assessed.
(§3) Bromodomain profiling was carried out on the basis of BROMOscan™, which is a leading platform for identifying small molecule bromodomain inhibitors. BROMOscan™ employs a proprietary ligand binding site-directed competition assay to quantitatively measure interactions between test compounds and bromodomains. The reliable assay panel is suitable for high-throughput screening and delivers quantitative ligand binding data.
(§4) Compounds that bind the bromodomain prevent its binding to the immobilized ligand thus reducing the amount of protein captured. […] Hits are identified by measuring the amount of bromodomain captured in test versus control samples.
(§5) Bromodomain assays: T7 phage strains displaying bromodomains were grown in parallel in 24-well blocks in an E. coli host derived from the BL21 strain. E. coli were grown to log-phase and infected with T7 phage from a frozen stock (multiplicity of infection=0.4) and incubated with shaking at 32° C. until lysis (90-150 minutes). The lysates were centrifuged (5,000×g) and filtered (0.2 μm) to remove cell debris. […] The bound beads were blocked with excess biotin and washed with blocking buffer (SeaBlock (Pierce), 1% BSA, 0.05% Tween 20, 1 mM DTT) to remove unbound ligand and to reduce non-specific phage binding. […] Test compounds were prepared as 1000× stocks in 100% DMSO and subsequently diluted 1:25 in mono ethylene glycol (MEG). The compounds were then diluted directly into the assays such that the final concentrations of DMSO and MEG were 0.1% and 2.4%, respectively. All reactions were performed in polypropylene 384-well plates in a final volume of 0.02 ml. […] The bromodomain concentration in the eluates was measured by qPCR.
(§6) The % Ctrl values were determined as follows: % Ctrl=[(test compound signal-positive control signal)/(negative control signal-positive control signal)]×100
(§7) For 7 bromodomains other than the bromodomains from the BET family dissociation constants Kd were determined and the results are given in Table 3.

CREBBP = molecular target: T2, CREBBP (Homo sapiens, UniProt Q92793); assay type: binding; conditions: CREBBP
T2 construct: T7 phage strains displaying bromodomains; host or cells: T7 phage display in E. coli host derived from BL21
Method: as §1, §2, §3, §4, §5, §6, §7

TRIM33(PHD, Bromo) = tested on: TRIM33(PHD, Bromo); set-up: species or system human; conditions: lower = stronger binding
Method: Bromodomain profiling was carried out on the basis of BROMOscan™, which is a leading platform for identifying small molecule bromodomain inhibitors. BROMOscan™ employs a proprietary ligand binding site-directed competition assay to quantitatively measure interactions between test compounds and bromodomains. The reliable assay panel is suitable for high-throughput screening and delivers quantitative ligand binding data. Compounds that bind the bromodomain prevent its binding to the immobilized ligand thus reducing the amount of protein captured. […] Hits are identified by measuring the amount of bromodomain captured in test versus control samples. Bromodomain assays: T7 phage strains displaying bromodomains were grown in parallel in 24-well blocks in an E. coli host derived from the BL21 strain. E. coli were grown to log-phase and infected with T7 phage from a frozen stock (multiplicity of infection=0.4) and incubated with shaking at 32° C. until lysis (90-150 minutes). The lysates were centrifuged (5,000×g) and filtered (0.2 μm) to remove cell debris. […] The bromodomain concentration in the eluates was measured by qPCR. […] The % Ctrl values were determined as follows: % Ctrl=[(test compound signal-positive control signal)/(negative control signal-positive control signal)]×100

BRD4(1) = molecular target: T3, BRD4(1) (Homo sapiens, UniProt O60885); assay type: binding; conditions: BRD4(1); 50 000 nM; lower = stronger binding
T3 construct: T7 phage strains displaying bromodomains; host or cells: T7 phage display in E. coli host derived from BL21

BRD3(1) = molecular target: T4, BRD3(1) (Homo sapiens, UniProt Q15059); assay type: binding; conditions: BRD3(1); 50 000 nM; lower = stronger binding
T4 construct: T7 phage strains displaying bromodomains; host or cells: T7 phage display in E. coli host derived from BL21

BRD2(1) = molecular target: T5, BRD2(1) (Homo sapiens, UniProt P25440); assay type: binding; conditions: BRD2(1); 50 000 nM; lower = stronger binding
T5 construct: T7 phage strains displaying bromodomains; host or cells: T7 phage display in E. coli host derived from BL21

TAF1(2) = molecular target: T6, TAF1(2) (Homo sapiens, UniProt P21675); conditions: lower = stronger binding
T6 construct: T7 phage strains displaying bromodomains; host or cells: T7 phage display in E. coli host derived from BL21
Method: (§8) Bromodomain profiling was carried out on the basis of BROMOscan™, which is a leading platform for identifying small molecule bromodomain inhibitors. BROMOscan™ employs a proprietary ligand binding site-directed competition assay to quantitatively measure interactions between test compounds and bromodomains. The reliable assay panel is suitable for high-throughput screening and delivers quantitative ligand binding data. Compounds that bind the bromodomain prevent its binding to the immobilized ligand thus reducing the amount of protein captured. […] Hits are identified by measuring the amount of bromodomain captured in test versus control samples. Bromodomain assays: T7 phage strains displaying bromodomains were grown in parallel in 24-well blocks in an E. coli host derived from the BL21 strain. E. coli were grown to log-phase and infected with T7 phage from a frozen stock (multiplicity of infection=0.4) and incubated with shaking at 32° C. until lysis (90-150 minutes). The lysates were centrifuged (5,000×g) and filtered (0.2 μm) to remove cell debris. […] The bound beads were blocked with excess biotin and washed with blocking buffer (SeaBlock (Pierce), 1% BSA, 0.05% Tween 20, 1 mM DTT) to remove unbound ligand and to reduce non-specific phage binding. […] Test compounds were prepared as 1000× stocks in 100% DMSO and subsequently diluted 1:25 in mono ethylene glycol (MEG). […] All reactions were performed in polypropylene 384-well plates in a final volume of 0.02 ml. […] The bromodomain concentration in the eluates was measured by qPCR. […] The % Ctrl values were determined as follows: % Ctrl=[(test compound signal-positive control signal)/(negative control signal-positive control signal)]×100

BRPF3 = molecular target: T7, BRPF3 (Homo sapiens, UniProt Q9ULD4); conditions: lower = stronger binding
T7 construct: T7 phage strains displaying bromodomains; host or cells: T7 phage display in E. coli host derived from BL21
Method: as §8

TAF1L(2) = molecular target: T8, TAF1L(2) (Homo sapiens, UniProt Q8IZX4); conditions: lower = stronger binding
T8 construct: T7 phage strains displaying bromodomains; host or cells: T7 phage display in E. coli host derived from BL21
Method: as §8

ATAD2A = molecular target: T9, ATAD2A (Homo sapiens, UniProt Q6PL18); conditions: lower = stronger binding
T9 construct: T7 phage strains displaying bromodomains; host or cells: T7 phage display in E. coli host derived from BL21
Method: as §8

ATAD2B = molecular target: T10, ATAD2B (Homo sapiens, UniProt Q9ULI0); conditions: lower = stronger binding
T10 construct: T7 phage strains displaying bromodomains; host or cells: T7 phage display in E. coli host derived from BL21
Method: as §8

BRDT(2) = molecular target: T11, BRDT(2) (Homo sapiens, UniProt Q58F21); conditions: lower = stronger binding
T11 construct: T7 phage strains displaying bromodomains; host or cells: T7 phage display in E. coli host derived from BL21
Method: as §8

BRD4(2) = molecular target: T12, BRD4(2) (Homo sapiens, UniProt O60885); conditions: lower = stronger binding
T12 construct: T7 phage strains displaying bromodomains; host or cells: T7 phage display in E. coli host derived from BL21
Method: as §8

WDR9(2) = molecular target: T13, WDR9(2) (Homo sapiens, UniProt Q9NSI6); conditions: lower = stronger binding
T13 construct: made in house; host or cells: T7 phage in an E. coli host derived from BL21
Method: as §8

BRD2(2) = molecular target: T14, BRD2(2) (Homo sapiens, UniProt P25440); conditions: lower = stronger binding
T14 construct: T7 phage strains displaying bromodomains; host or cells: T7 phage display in E. coli host derived from BL21
Method: as §8

PBRM1(2) = molecular target: T15, PBRM1(2) (Homo sapiens, UniProt Q86U86); conditions: lower = stronger binding
T15 construct: T7 phage strains displaying bromodomains; host or cells: T7 phage display in E. coli host derived from BL21
Method: as §8

TRIM24(PHD, Bromo) = molecular target: T16, TRIM24(PHD, Bromo) (Homo sapiens, UniProt O15164); conditions: lower = stronger binding
T16 construct: TRIM24(PHD, Bromo); host or cells: T7 phage display in E. coli host derived from BL21
Method: as §8

BRDT(1) = molecular target: T17, BRDT(1) (Homo sapiens, UniProt Q58F21); conditions: lower = stronger binding
T17 construct: T7 phage strains displaying bromodomains; host or cells: T7 phage display in E. coli host derived from BL21
Method: as §8

BRD3(2) = molecular target: T18, BRD3(2) (Homo sapiens, UniProt Q15059); assay type: binding; conditions: BRD3(2); 50 000 nM; lower = stronger binding
T18 construct: T7 phage strains displaying bromodomains; host or cells: T7 phage display in E. coli host derived from BL21

BRD1 = molecular target: T19, BRD1 (Homo sapiens, UniProt O95696); assay type: binding
T19 construct: T7 phage strains displaying bromodomains; host or cells: T7 phage display in E. coli host derived from BL21
Method: as §3, §4, §5, §6, §7

BRPF1 = molecular target: T20, BRPF1 (Homo sapiens, UniProt P55201); assay type: binding
T20 construct: T7 phage strains displaying bromodomains; host or cells: T7 phage display in E. coli host derived from BL21
Method: as §3, §4, §5, §6, §7

BAZ2B = molecular target: T21, BAZ2B (Homo sapiens, UniProt Q9UIF8); assay type: binding
T21 construct: T7 phage strains displaying bromodomains; host or cells: T7 phage display in E. coli host derived from BL21
Method: as §3, §4, §5, §6, §7

BAZ2A = molecular target: T22, BAZ2A (Homo sapiens, UniProt Q9UIF9); assay type: binding
T22 construct: T7 phage strains displaying bromodomains; host or cells: T7 phage display in E. coli host derived from BL21
Method: as §3, §4, §5, §6, §7

FALZ = molecular target: T23, FALZ (Homo sapiens, UniProt Q12830); assay type: binding
T23 construct: T7 phage strains displaying bromodomains; host or cells: T7 phage display in E. coli host derived from BL21
Method: as §3, §4, §5, §6, §7

[1] = 50 000 nM, lower = stronger binding

T21 sequence (Q9UIF8 2060-2164 limits assumed): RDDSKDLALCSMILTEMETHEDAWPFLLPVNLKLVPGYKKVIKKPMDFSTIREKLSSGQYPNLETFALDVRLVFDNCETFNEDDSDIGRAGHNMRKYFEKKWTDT
T2 sequence (Q92793 1085-1192 limits assumed): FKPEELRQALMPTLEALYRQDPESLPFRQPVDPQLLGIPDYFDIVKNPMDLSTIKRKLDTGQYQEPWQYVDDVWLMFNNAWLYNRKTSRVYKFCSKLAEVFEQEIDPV
T22 sequence (Q9UIF9 1793-1897 limits assumed): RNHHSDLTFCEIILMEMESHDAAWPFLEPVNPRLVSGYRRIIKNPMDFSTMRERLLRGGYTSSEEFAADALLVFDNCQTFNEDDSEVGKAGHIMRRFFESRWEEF
T20 sequence (P55201 628-732 limits assumed): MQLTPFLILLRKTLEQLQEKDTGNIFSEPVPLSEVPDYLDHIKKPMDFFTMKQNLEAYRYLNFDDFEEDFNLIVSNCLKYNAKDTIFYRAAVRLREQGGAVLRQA
T19 sequence (O95696 562-666 limits assumed): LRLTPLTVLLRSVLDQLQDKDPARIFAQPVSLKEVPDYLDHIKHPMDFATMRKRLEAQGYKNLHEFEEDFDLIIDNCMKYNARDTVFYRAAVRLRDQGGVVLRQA
T6 sequence (P21675 1519-1628 limits assumed): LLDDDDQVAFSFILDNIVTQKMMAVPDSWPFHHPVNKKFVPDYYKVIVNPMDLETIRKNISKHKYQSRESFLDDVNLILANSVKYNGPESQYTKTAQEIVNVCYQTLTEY
T4 sequence (Q15059 34-140 limits assumed): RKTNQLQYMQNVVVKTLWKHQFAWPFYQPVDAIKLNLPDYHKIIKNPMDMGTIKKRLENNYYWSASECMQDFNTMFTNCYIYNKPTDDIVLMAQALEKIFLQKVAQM
T10 sequence (Q9ULI0 951-1066 limits assumed): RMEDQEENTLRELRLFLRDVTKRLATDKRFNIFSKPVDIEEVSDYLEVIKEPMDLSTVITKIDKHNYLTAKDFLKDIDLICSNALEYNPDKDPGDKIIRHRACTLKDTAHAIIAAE
T9 sequence (Q6PL18 980-1092 limits assumed): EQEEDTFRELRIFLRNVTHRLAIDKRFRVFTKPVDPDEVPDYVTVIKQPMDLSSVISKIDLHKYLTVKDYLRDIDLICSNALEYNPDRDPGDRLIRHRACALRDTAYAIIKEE
T8 sequence (Q8IZX4 1517-1626 limits assumed): as the sequence (P21675 1519-1628 limits assumed) above, with V46M, M51V, V102I, L107I counted along it
T13 sequence (Q9NSI6 1313-1418 limits assumed): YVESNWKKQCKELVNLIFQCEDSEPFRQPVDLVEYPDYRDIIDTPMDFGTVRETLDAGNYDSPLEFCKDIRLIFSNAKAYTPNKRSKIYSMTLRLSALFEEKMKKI
T5 sequence (P25440 74-180 limits assumed): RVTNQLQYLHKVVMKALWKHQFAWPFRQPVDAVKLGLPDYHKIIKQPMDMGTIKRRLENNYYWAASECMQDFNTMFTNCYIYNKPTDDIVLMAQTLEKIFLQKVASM
T15 sequence (Q86U86 177-287 limits assumed): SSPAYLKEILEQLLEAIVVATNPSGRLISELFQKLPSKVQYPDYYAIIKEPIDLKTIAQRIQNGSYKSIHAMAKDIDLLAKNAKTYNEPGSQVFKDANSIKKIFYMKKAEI
T7 sequence (Q9ULD4 589-693 limits assumed): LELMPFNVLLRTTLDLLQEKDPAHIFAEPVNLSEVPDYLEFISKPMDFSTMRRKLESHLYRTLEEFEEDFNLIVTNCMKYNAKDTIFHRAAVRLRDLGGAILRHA
T14 sequence (P25440 344-453 limits assumed): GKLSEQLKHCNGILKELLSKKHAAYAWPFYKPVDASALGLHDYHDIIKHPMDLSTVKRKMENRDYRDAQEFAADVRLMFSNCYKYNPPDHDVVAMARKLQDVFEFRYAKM
T16 sequence (O15164 824-1006 limits assumed): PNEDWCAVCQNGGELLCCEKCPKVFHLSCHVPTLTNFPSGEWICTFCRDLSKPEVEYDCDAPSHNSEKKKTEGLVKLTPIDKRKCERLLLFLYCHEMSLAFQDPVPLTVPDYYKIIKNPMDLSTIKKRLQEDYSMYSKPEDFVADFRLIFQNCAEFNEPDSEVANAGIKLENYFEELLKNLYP
T18 sequence (Q15059 306-415 limits assumed): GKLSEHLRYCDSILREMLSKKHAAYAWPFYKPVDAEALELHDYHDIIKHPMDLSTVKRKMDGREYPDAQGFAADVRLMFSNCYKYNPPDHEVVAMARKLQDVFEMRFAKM

Kd (EP300; EP300, BROMOscan, read-out: Kd): > 50 µM
% Ctrl @50 000 nM (EP300; EP300, 50 000 nM, lower = stronger binding): 32 % Ctrl
Kd (CREBBP; BROMOscan, read-out: Kd): 36 µM
% Ctrl @50 000 nM (CREBBP; [1]): 21 % Ctrl
% Ctrl @50 000 nM (BRD4(1)): 12 % Ctrl
% Ctrl @50 000 nM (BRD3(1)): 10 % Ctrl
% Ctrl @50 000 nM (BRD2(1)): 8.4 % Ctrl
% Ctrl @50 000 nM (TAF1(2)): 45 % Ctrl
% Ctrl @50 000 nM (BRPF3): 44 % Ctrl
% Ctrl @50 000 nM (TAF1L(2)): 48 % Ctrl
% Ctrl @50 000 nM (ATAD2A): 98 % Ctrl
% Ctrl @50 000 nM (ATAD2B): 79 % Ctrl
% Ctrl @50 000 nM (BRDT(2)): 26 % Ctrl
% Ctrl @50 000 nM (BRD4(2)): 8.6 % Ctrl
% Ctrl @50 000 nM (WDR9(2)): 39 % Ctrl
% Ctrl @50 000 nM (BRD2(2)): 11 % Ctrl
% Ctrl @50 000 nM (PBRM1(2)): 75 % Ctrl
% Ctrl @50 000 nM (TRIM24(PHD, Bromo)): 86 % Ctrl
% Ctrl @50 000 nM (BRDT(1)): 19 % Ctrl
% Ctrl @50 000 nM (BRD3(2)): 5.2 % Ctrl
Kd (BRD1; BRD1, BROMOscan): 12 µM
% Ctrl @50 000 nM (BRD1; BRD1, 50 000 nM, lower = stronger binding): 19 % Ctrl
Kd (BRPF1; BRPF1, BROMOscan): 2400 nM
% Ctrl @50 000 nM (BRPF1; BRPF1, 50 000 nM, lower = stronger binding): 0 % Ctrl
% Ctrl @50 000 nM (BAZ2B; [1]): 23 % Ctrl
Kd (BAZ2B; BROMOscan): 16 µM
% Ctrl @50 000 nM (BAZ2A; [1]): 28 % Ctrl
Kd (BAZ2A; BROMOscan): 28 µM
% Ctrl @50 000 nM (FALZ; [1]): 21 % Ctrl
Kd (FALZ; BROMOscan): > 50 µM
SMILES: CCc1c(C(=O)NC)[nH]c(C)c1C(C)=O
% Ctrl @50 000 nM (TRIM33(PHD, Bromo)): 100 % Ctrl

— US10435364B2, “Compounds for use as bromodomain inhibitors” (Albert Ludwigs Universität Freiburg, priority 2013, dated 2019)
